Data published in the NIST ThermoML archive (doi:10.1016/j.fluid.2012.08.030).

Key:
[1] = Liquid; for mass density: 101 kPa, Vibrating tube method; for vapor or sublimation pressure: Ebulliometric method (Recirculating still)
[2] = xn = mol fraction of the nth substance listed; conditions: 101 kPa, Liquid, Vibrating tube method

CCOCCO [2-ethoxyethan-1-ol]
[1]
Conditions	mass density [kg/m3]	vapor or sublimation pressure [kPa]
303.15 K	921.21	–
308.15 K	916.48	–
313.15 K	911.88	–
318.15 K	907.79	–
373.48 K	–	28.1
378.36 K	–	34.2
383.18 K	–	41.3
387.06 K	–	47.9
390.12 K	–	53.7
393.37 K	–	60.5
396.86 K	–	68.6
399.9 K	–	76.4
401.65 K	–	81.2
404.22 K	–	88.7
406.33 K	–	95.3

CN1CCCC1=O [N-methylpyrrolidone] + COCCO
[2], x1 = 1
Conditions	mass density [kg/m3]
303.15 K	1023.45
308.15 K	1019.34
313.15 K	1014.82
318.15 K	1010.06

CN1CCCC1=O [N-methylpyrrolidone] + CCOCCO
[2], x1 = 1
Conditions	mass density [kg/m3]
303.15 K	1023.45
308.15 K	1019.34
313.15 K	1014.82
318.15 K	1010.06

CN1CCCC1=O [N-methylpyrrolidone]
[1]
Conditions	mass density [kg/m3]	vapor or sublimation pressure [kPa]
303.15 K	1023.45	–
308.15 K	1019.34	–
313.15 K	1014.82	–
318.15 K	1010.06	–
430.09 K	–	28.1
436.5 K	–	34.2
442.88 K	–	41.3
448.05 K	–	47.9
452.13 K	–	53.7
456.48 K	–	60.5
461.17 K	–	68.6
465.29 K	–	76.4
467.66 K	–	81.2
471.15 K	–	88.7
474.01 K	–	95.3

CCOCCO [2-ethoxyethan-1-ol] + CN1CCCC1=O
mass density [kg/m3], [2]
Conditions	303.15 K	308.15 K	313.15 K	318.15 K
x2 = 0	921.21	916.48	911.88	907.79
x2 = 0.101	936.06	931.85	927.8	924.28
x2 = 0.202	949.87	946.07	942.45	939.35
x2 = 0.302	962.64	959.15	955.84	953.02
x2 = 0.402	974.38	971.1	967.97	965.3
x2 = 0.503	985.1	981.93	978.86	976.19
x2 = 0.602	994.78	991.62	988.5	985.68
x2 = 0.702	1003.45	1000.2	996.91	993.82
x2 = 0.802	1011.12	1007.68	1004.1	1000.58
x2 = 0.851	1014.58	1011.01	1007.23	1003.46
x2 = 0.901	1017.78	1014.06	1010.06	1006
x2 = 0.926	1019.29	1015.48	1011.37	1007.14
x2 = 0.951	1020.74	1016.84	1012.59	1008.2
x2 = 0.982	1022.5	1018.47	1014.05	1009.43

CN1CCCC1=O [N-methylpyrrolidone] + CCCCOCCO
[2], x1 = 1
Conditions	mass density [kg/m3]
303.15 K	1023.45
308.15 K	1019.34
313.15 K	1014.82
318.15 K	1010.06

CCCCOCCO [2-butoxyethan-1-ol] + CN1CCCC1=O
mass density [kg/m3], [2]
Conditions	303.15 K	308.15 K	313.15 K	318.15 K
x2 = 0	892.28	888.19	884.17	880.02
x2 = 0.132	914.72	911.2	907.8	904.37
x2 = 0.255	934.22	931.07	928.06	925.08
x2 = 0.369	951.2	948.27	945.46	942.72
x2 = 0.477	966.04	963.19	960.43	957.74
x2 = 0.577	979	976.12	973.27	970.48
x2 = 0.672	990.36	987.35	984.32	981.3
x2 = 0.761	1000.3	997.1	993.8	990.46
x2 = 0.845	1009.04	1005.59	1001.93	998.18
x2 = 0.925	1016.72	1012.95	1008.89	1004.66
x2 = 0.948	1018.83	1014.97	1010.77	1006.39
x2 = 0.963	1020.19	1016.26	1011.97	1007.49
x2 = 0.978	1021.52	1017.52	1013.14	1008.55
x2 = 0.993	1022.82	1018.74	1014.27	1009.57

COCCO [2-methoxyethan-1-ol]
[1]
Conditions	mass density [kg/m3]	vapor or sublimation pressure [kPa]
303.15 K	955.74	–
308.15 K	951.14	–
313.15 K	946.25	–
318.15 K	941.59	–
364.15 K	–	28.1
368.84 K	–	34.2
373.48 K	–	41.3
377.22 K	–	47.9
380.17 K	–	53.7
383.3 K	–	60.5
386.66 K	–	68.6
389.59 K	–	76.4
391.28 K	–	81.2
393.75 K	–	88.7
395.78 K	–	95.3

CCCCOCCO [2-butoxyethan-1-ol]
[1]
Conditions	mass density [kg/m3]	vapor or sublimation pressure [kPa]
303.15 K	892.28	–
308.15 K	888.19	–
313.15 K	884.17	–
318.15 K	880.02	–
406.8 K	–	28.1
412.1 K	–	34.2
417.35 K	–	41.3
421.57 K	–	47.9
424.9 K	–	53.7
428.43 K	–	60.5
432.22 K	–	68.6
435.52 K	–	76.4
437.42 K	–	81.2
440.2 K	–	88.7
442.49 K	–	95.3

COCCO [2-methoxyethan-1-ol] + CN1CCCC1=O
mass density [kg/m3], [2]
Conditions	303.15 K	308.15 K	313.15 K	318.15 K
x2 = 0	955.74	951.14	946.25	941.59
x2 = 0.084	965.64	961.46	957.05	952.92
x2 = 0.171	975.06	971.25	967.28	963.59
x2 = 0.261	983.98	980.47	976.83	973.49
x2 = 0.354	992.29	989	985.62	982.52
x2 = 0.451	999.91	996.77	993.52	990.55
x2 = 0.552	1006.73	1003.64	1000.44	997.46
x2 = 0.657	1012.64	1009.49	1006.19	1003.04
x2 = 0.767	1017.5	1014.17	1010.64	1007.15
x2 = 0.881	1021.17	1017.52	1013.58	1009.56
x2 = 0.916	1022	1018.23	1014.14	1009.93
x2 = 0.94	1022.5	1018.64	1014.43	1010.07
x2 = 0.97	1023.01	1019.04	1014.68	1010.13
x2 = 0.988	1023.3	1019.24	1014.78	1010.1
